From ChEMBL document CHEMBL4811307, “Design, synthesis and biological evaluation of dual Bcl-2/Mcl-1 inhibitors bearing 2-(1H-indol-4-yl)benzoic acid scaffold” (Bioorg Med Chem Lett, 2021)

How the values were obtained:
[1] = target: Induced myeloid leukemia cell differentiation protein Mcl-1 (Homo sapiens, UniProt Q07820); experiment: Binding affinity to Mc1-1 (unknown origin) by fluorescence polarization competition assay
Bcl-2-like protein 1 = Bcl-2-like protein 1 (Homo sapiens, UniProt Q07817); experiment: Binding affinity to Bc1-xL (unknown origin) by fluorescence polarization competition assay
Chain of Bcl-2-like protein 1 (Q07817 whole entry): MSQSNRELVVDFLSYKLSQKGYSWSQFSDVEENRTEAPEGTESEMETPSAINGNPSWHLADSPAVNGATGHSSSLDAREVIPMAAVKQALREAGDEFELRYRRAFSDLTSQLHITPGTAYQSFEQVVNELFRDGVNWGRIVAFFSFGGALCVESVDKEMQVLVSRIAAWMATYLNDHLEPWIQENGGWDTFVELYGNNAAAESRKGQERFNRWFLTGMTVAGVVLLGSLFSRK

Chain of Induced myeloid leukemia cell differentiation protein Mcl-1 (Q07820 whole entry): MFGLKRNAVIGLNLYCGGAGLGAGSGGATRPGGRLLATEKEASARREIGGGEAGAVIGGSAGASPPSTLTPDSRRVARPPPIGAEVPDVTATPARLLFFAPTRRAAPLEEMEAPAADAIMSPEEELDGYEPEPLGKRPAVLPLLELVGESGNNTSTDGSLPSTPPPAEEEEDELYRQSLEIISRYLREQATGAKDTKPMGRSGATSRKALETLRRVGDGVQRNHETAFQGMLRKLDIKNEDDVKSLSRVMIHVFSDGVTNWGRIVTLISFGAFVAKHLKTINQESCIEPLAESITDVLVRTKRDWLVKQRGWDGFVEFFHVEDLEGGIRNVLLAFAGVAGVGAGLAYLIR

SMILES | Ki [1] [nM] | Ki (Bcl-2-like protein 1; read-out: Ki) [µM] | Ki (Bcl-2-like protein 1)
Cc1cccc(-c2cn(Cc3cccc4ccccc34)c3cccc(-c4ccccc4C(=O)O)c23)c1 | 960 | > 200 | 
O=C(O)c1ccccc1-c1cccc2c1c(-c1cccc(Cl)c1)cn2CCOc1cccc2ccccc12 | 360 | 2.3 | 
O=C(O)c1ccccc1-c1cccc2c1ccn2CCCOc1cccc2ccccc12 | 1190 |  | Not Active
Cc1cccc(-c2cn(CCOc3cccc4ccccc34)c3cccc(-c4ccccc4C(=O)O)c23)c1 | 920 | > 200 | 
Cc1cccc(-c2cn(CCOc3cccc4ccccc34)c3cccc(-c4ccccc4C(=O)O)c23)c1C | 710 | > 200 | 
COc1cccc(-c2cn(Cc3cccc4ccccc34)c3cccc(-c4ccccc4C(=O)O)c23)c1 | 290 | > 200 | 
Cc1cccc(-c2cn(CCCOc3cccc4ccccc34)c3cccc(-c4ccccc4C(=O)O)c23)c1 | 1330 | > 200 | 
CCc1ccccc1-c1cn(CCOc2cccc3ccccc23)c2cccc(-c3ccccc3C(=O)O)c12 | 270 | > 200 | 
CC1(C)CCC(CN2CCN(c3ccc(C(=O)NS(=O)(=O)c4ccc(NCC5CCOCC5)c([N+](=O)[O-])c4)c(Oc4cnc5[nH]ccc5c4)c3)CC2)=C(c2ccc(Cl)cc2)C1 [VENETOCLAX] | > 200000 |  | 
COc1ccccc1-c1cn(Cc2cccc3ccccc23)c2cccc(-c3ccccc3C(=O)O)c12 | 270 | > 200 | 
Cc1cc2c(C(C)C)c(O)c(O)c(C=O)c2c(O)c1-c1c(C)cc2c(C(C)C)c(O)c(O)c(C=O)c2c1O [GOSSYPOL] |  | 0.61 | 
O=C(O)c1ccccc1-c1cccc2c1c(-c1cccc(Cl)c1)cn2Cc1cccc2ccccc12 | 450 | > 200 | 
O=C(O)c1ccccc1-c1cccc2c1c(-c1cccc(C(F)(F)F)c1)cn2CCCOc1cccc2ccccc12 | 280 | 3.1 | 

More lines, now with the values ahead:

Ki [1] [nM] | Ki (Bcl-2-like protein 1; read-out: Ki) [µM] | Ki (Bcl-2-like protein 1) | SMILES
120 | > 200 |  | O=C(O)c1ccccc1-c1cccc2c1c(-c1ccccc1)cn2Cc1cccc2ccccc12
70 | > 200 |  | Cc1ccccc1-c1cn(Cc2cccc3ccccc23)c2cccc(-c3ccccc3C(=O)O)c12
230 | > 200 |  | Cc1ccc(-c2cn(Cc3cccc4ccccc34)c3cccc(-c4ccccc4C(=O)O)c23)cc1
170 | > 200 |  | Cc1ccccc1-c1cn(CCOc2cccc3ccccc23)c2cccc(-c3ccccc3C(=O)O)c12
190 | > 200 |  | O=C(O)c1ccccc1-c1cccc2c1c(-c1cccc(C(F)(F)F)c1)cn2Cc1cccc2ccccc12
220 | 2.3 |  | O=C(O)c1ccc(Cl)cc1-c1cccc2c1ccn2CCCOc1cccc2ccccc12
250 | > 200 |  | Cc1ccc(-c2cn(CCOc3cccc4ccccc34)c3cccc(-c4ccccc4C(=O)O)c23)cc1
30 | 6.1 |  | O=C(O)c1ccccc1-c1cccc2c1c(-c1cccc(C(F)(F)F)c1)cn2CCOc1cccc2ccccc12
170 | > 200 |  | COc1ccccc1-c1cn(CCOc2cccc3ccccc23)c2cccc(-c3ccccc3C(=O)O)c12
170 | > 200 |  | CC(C)c1ccccc1-c1cn(CCOc2cccc3ccccc23)c2cccc(-c3ccccc3C(=O)O)c12
